This passage reports IC50 and CC50 results from PMC6270246, “Anthraquinones of the Roots of Pentas micrantha” (Molecules, 2012).

Series [1] relates to Sierra Leone D6 chloroquine-sensitive Plasmodium falciparum strain. The arrangement: method as in PMID 21979929. As to conditions: P. falciparum D6 strain; in vitro; bioactivity previously published; cited from earlier work.
The test system of series [2] is MCF-7 human breast cancer cells. The arrangement: method as in PMID 21979929. Particulars: MCF-7 cells; bioactivity previously published; read-out: CC50 (cytotoxic concentration); cited from earlier work.
Series [3] relates to Indochina W2 chloroquine-resistant Plasmodium falciparum strain. The arrangement: method as in PMID 21979929. Particulars: P. falciparum W2 strain; in vitro; bioactivity previously published; cited from earlier work.
Series [4] in a line: Cytotoxicity assay (PrestoBlue cell viability, 48 h). Format: cell-based. Particulars: human, MCF-7 breast cancer cells, MCF-7 cells, mean of at least six independent experiments, read-out: CC50 (cytotoxic concentration). As for the experimental part:
MCF-7 human breast cancer cells were cultured in Dulbecco’s modified eagle medium (DMEM) supplemented with 10% (v/v) fetal bovine serum, 2 mM L-glutamine, 100 units/mL penicillin and 100 µg/mL streptomycin at 37 °C in humidified 5% CO2. For cytotoxicity assays, cells were seeded in 96-well plates at optimal cell density to ensure exponential growth for the duration of the assay. After a 24-h preincubation growth, the medium was replaced with experimental medium containing the appropriate drug concentrations or vehicle controls (0.1% or 1.0% v/v DMSO). After 48 h incubation, cell viability was measured using PrestoBlue™ Cell Viability Reagent (Invitrogen Ab, Lidingö, Sweden) according to the manufacturer’s instructions. […] Results were expressed as the mean ± standard error for six replicates as a percentage of vehicle control (taken as 100%). Experiments were performed independently at least six times. Statistical analyses were performed using a two-tailed Student’s t-test. p < 0.05 was considered to be statistically significant.

The test system of series [5] is Indochina W2 chloroquine-resistant Plasmodium falciparum strain. Kind of series: Malaria SYBR Green I-based in vitro drug susceptibility assay, W2 strain. Format: cell-based. As to the method: (§1) For cytotoxicity (CC50) assay 1-isopropyl-3-(pyridin-4-ylethynyl)-1H-pyrazolo[3,4-d]pyrimidin-4-amine was used as reference substance.
(§2) Sierra Leone D6 chloroquine-sensitive and the Indochina W2 chloroquine-resistant Plasmodium falciparum strains (donated by the Walter Reed Army Institute for Research [WRAIR], 503 Robert Grant Avenue, Silver Spring, MD 20910, USA) were maintained in continuous culture to attain replication robustness prior to assays. Drug susceptibility was tested by the Malaria SYBR Green I-based in vitro assay technique.

Series [6] relates to Sierra Leone D6 chloroquine-sensitive Plasmodium falciparum strain. In words: Malaria SYBR Green I-based in vitro drug susceptibility assay, D6 strain. Format: cell-based. As to the method: as §1, §2

Where two headings read alike, the source gives them in different places.

On to `Cc1c(O)cc2c(c1O)C(=O)c1ccccc1C2=O` [Compound 5, rubiadin], for which the results for the IC50 in series [1] and in series [3] were 21.5 µM and 31.91 ± 0.01 µM, respectively. Besides, the CC50 in series [2] was 310 µM.

On to `CC(C)n1nc(C#Cc2ccncc2)c2c(N)ncnc21` [1-isopropyl-3-(pyridin-4-ylethynyl)-1H-pyrazolo[3,4-d]pyrimidin-4-amine, reference compound], for which the CC50 at 48 h in series [4] was found to be 5 µM.

Take `COc1c(C=O)c(O)cc2c1C(=O)c1ccccc1C2=O` [Compound 7, damnacanthal]: the values for the IC50 in series [1] and in series [3] were 27.2 µM and 38.6 µM, respectively. Moreover, in series [2], the CC50 is 316 µM.

Turning to `Cc1ccc2c(c1)C(=O)c1ccccc1C2=O` [Compound 1, tectoquinone], the results for the half-maximal inhibitory concentration (IC50) in series [1] and in series [3] were 30.36 ± 0.01 µM and 48.56 ± 0.01 µM, respectively. Further, the CC50 in series [2] was above 100 µM.

As to `OC(c1cc(C(F)(F)F)nc2c(C(F)(F)F)cccc12)C1CCCCN1` (centres unmarked) [mefloquine], the IC50 in series [5] (P. falciparum W2 strain, positive controls, read-out: IC50 (W2)) was 0.00665 µM; in series [6] (P. falciparum D6 strain, positive controls, read-out: IC50 (D6)) it was 0.0876 µM.

As to `COCc1c(O)cc2c(c1O)C(=O)c1ccccc1C2=O` [Compound 2, lucidin-ω-methyl ether], the results for the IC50 in series [1] and in series [3] were 42.54 ± 0.01 µM and 46.44 ± 0.01 µM, respectively. For the same molecule, the CC50 in series [2] was above 352 µM.

On to `CCN(CC)CCCC(C)Nc1ccnc2cc(Cl)ccc12` (centres unmarked) [chloroquine], for which the IC50 in series [5] (W2, read-out: IC50 (W2)) is 0.522 µM; in series [6] (D6, read-out: IC50 (D6)), 0.0147 µM.

Turning to `COc1c(CO)c(O)cc2c1C(=O)c1ccc(O)c(O)c1C2=O` [Compound 8, 5,6-dihydroxydamnacanthol], the IC50 in series [1] is 47.53 ± 0.01 µM; in series [3] it was 61.17 ± 0.02 µM. For the same molecule, the CC50 in series [2] is above 450 µM.

As for `COc1c(CO)c(O)cc2c1C(=O)c1ccccc1C2=O` [Compound 3, damnacanthol], the results for the half-inhibitory concentration (IC50) in series [1] and in series [3] were 56.6 µM and 110.6 ± 0.01 µM, respectively. For the same molecule, the CC50 in series [2] was 238 µM.

For `COc1c(C)c(O)cc2c1C(=O)c1ccccc1C2=O` [Compound 4, rubiadin-1-methyl ether], the 50% inhibitory concentration (IC50) in series [1] is 45.07 ± 0.01 µM; in series [3], 70.6 µM. The CC50 in series [2] is 208 µM.

As to `COCc1c(O)cc2c(c1O)C(=O)c1ccc(O)c(O)c1C2=O` [Compound 6, 1,3,5,6-tetrahydroxy-2-(methoxymethyl)-9,10-anthraquinone], the IC50 came out at 35.41 ± 0.01 µM in series [5] (P. falciparum W2 strain, in vitro, mean of at least 3 independent experiments, read-out: IC50 W2) and 31.84 ± 0.01 µM in series [6] (P. falciparum D6 strain, in vitro, mean of at least 3 independent experiments, read-out: IC50 D6). The CC50 at 48 h in series [4] is 258 µM.

The term IC50 denotes the point on the concentration scale where inhibition reaches its midpoint.
